Measurements taken from ChEMBL document CHEMBL3272143, “Synthesis of heteroaromatic potential beta-adrenergic antagonists by the glycidol route” (1978).

How the values were obtained:
Assay type in all cases: functional
Canis familiaris [1] = test: Inhibition of isoproterenol-induced increase in heart rate in iv dosed bilaterally vagotomized open chest mongrel dog model administered 10 to 20 mins prior to and following isoproterenol challenge; conditions: Canis lupus familiaris
Canis familiaris [2] = test: Inhibition of isoproterenol-induced decrease in diastolic blood pressure in bilaterally vagotomized open chest mongrel dog model at 14.58 mg/kg, iv administered 10 to 20 mins prior to and following isoproterenol challenge; conditions: Canis lupus familiaris, Artery
Canis familiaris [3] = test: Inhibition of isoproterenol-induced decrease in diastolic blood pressure in bilaterally vagotomized open chest mongrel dog model at 0.42 mg/kg, iv administered 10 to 20 mins prior to and following isoproterenol challenge; conditions: Canis lupus familiaris, Artery
Canis familiaris [4] = test: Inhibition of isoproterenol-induced decrease in diastolic blood pressure in bilaterally vagotomized open chest mongrel dog model at 4.58 mg/kg, iv administered 10 to 20 mins prior to and following isoproterenol challenge; conditions: Canis lupus familiaris, Artery
Canis familiaris [5] = test: Inhibition of isoproterenol-induced decrease in diastolic blood pressure in bilaterally vagotomized open chest mongrel dog model at 0.1 mg/kg, iv administered 10 to 20 mins prior to and following isoproterenol challenge; conditions: Canis lupus familiaris, Artery
Canis familiaris [6] = test: Inhibition of isoproterenol-induced increase in heart rate in bilaterally vagotomized open chest mongrel dog model at 14.58 mg/kg, iv administered 10 to 20 mins prior to and following isoproterenol challenge; conditions: Canis lupus familiaris
Canis familiaris [7] = test: Inhibition of isoproterenol-induced decrease in diastolic blood pressure in iv dosed bilaterally vagotomized open chest mongrel dog model administered 10 to 20 mins prior to and following isoproterenol challenge; conditions: Canis lupus familiaris, Artery
Canis familiaris [8] = test: Inhibition of isoproterenol-induced increase in heart rate in bilaterally vagotomized open chest mongrel dog model at 1.42 mg/kg, iv administered 10 to 20 mins prior to and following isoproterenol challenge; conditions: Canis lupus familiaris
Canis familiaris [9] = test: Inhibition of isoproterenol-induced increase in heart rate in bilaterally vagotomized open chest mongrel dog model at 4.58 mg/kg, iv administered 10 to 20 mins prior to and following isoproterenol challenge; conditions: Canis lupus familiaris
Canis familiaris [10] = test: Inhibition of isoproterenol-induced decrease in diastolic blood pressure in bilaterally vagotomized open chest mongrel dog model at 1.42 mg/kg, iv administered 10 to 20 mins prior to and following isoproterenol challenge; conditions: Canis lupus familiaris, Artery
Canis familiaris [11] = test: Inhibition of isoproterenol-induced increase in heart rate in bilaterally vagotomized open chest mongrel dog model at 0.1 mg/kg, iv administered 10 to 20 mins prior to and following isoproterenol challenge; conditions: Canis lupus familiaris
Canis familiaris [12] = test: Inhibition of isoproterenol-induced increase in heart rate in bilaterally vagotomized open chest mongrel dog model at 0.42 mg/kg, iv administered 10 to 20 mins prior to and following isoproterenol challenge; conditions: Canis lupus familiaris
Canis familiaris [13] = test: Inhibition of isoproterenol-induced increase in heart rate in bilaterally vagotomized open chest mongrel dog model at 0.13 mg/kg, iv administered 10 to 20 mins prior to and following isoproterenol challenge; conditions: Canis lupus familiaris
Canis familiaris [14] = test: Inhibition of isoproterenol-induced decrease in diastolic blood pressure in bilaterally vagotomized open chest mongrel dog model at 0.03 mg/kg, iv administered 10 to 20 mins prior to and following isoproterenol challenge; conditions: Canis lupus familiaris, Artery
Canis familiaris [15] = test: Inhibition of isoproterenol-induced increase in heart rate in bilaterally vagotomized open chest mongrel dog model at 0.45 mg/kg, iv administered 10 to 20 mins prior to and following isoproterenol challenge; conditions: Canis lupus familiaris
Canis familiaris [16] = test: Inhibition of isoproterenol-induced decrease in diastolic blood pressure in bilaterally vagotomized open chest mongrel dog model at 4.61 mg/kg, iv administered 10 to 20 mins prior to and following isoproterenol challenge; conditions: Canis lupus familiaris, Artery
Canis familiaris [17] = test: Inhibition of isoproterenol-induced decrease in diastolic blood pressure in bilaterally vagotomized open chest mongrel dog model at 0.45 mg/kg, iv administered 10 to 20 mins prior to and following isoproterenol challenge; conditions: Canis lupus familiaris, Artery
Canis familiaris [18] = test: Inhibition of isoproterenol-induced decrease in diastolic blood pressure in bilaterally vagotomized open chest mongrel dog model at 1.45 mg/kg, iv administered 10 to 20 mins prior to and following isoproterenol challenge; conditions: Canis lupus familiaris, Artery
Canis familiaris [19] = test: Inhibition of isoproterenol-induced increase in heart rate in bilaterally vagotomized open chest mongrel dog model at 4.61 mg/kg, iv administered 10 to 20 mins prior to and following isoproterenol challenge; conditions: Canis lupus familiaris
Canis familiaris [20] = test: Inhibition of isoproterenol-induced increase in heart rate in bilaterally vagotomized open chest mongrel dog model at 0.03 mg/kg, iv administered 10 to 20 mins prior to and following isoproterenol challenge; conditions: Canis lupus familiaris
Canis familiaris [21] = test: Inhibition of isoproterenol-induced increase in heart rate in bilaterally vagotomized open chest mongrel dog model at 1.45 mg/kg, iv administered 10 to 20 mins prior to and following isoproterenol challenge; conditions: Canis lupus familiaris
Canis familiaris [22] = test: Inhibition of isoproterenol-induced decrease in diastolic blood pressure in bilaterally vagotomized open chest mongrel dog model at 0.13 mg/kg, iv administered 10 to 20 mins prior to and following isoproterenol challenge; conditions: Canis lupus familiaris, Artery

`CC(C)(C)NCC(O)COc1ncns1` (configuration not stated) gave an ED50 (Canis familiaris [1]) of 0.4 mg/kg, an inhibition in vivo at 14.58 mg/kg (Canis familiaris [2]) of 76.5% and an inhibition in vivo at 0.42 mg/kg (Canis familiaris [3]) of 1%. It also gave an inhibition in vivo at 4.58 mg/kg (Canis familiaris [4]) of 50%, an inhibition in vivo at 0.1 mg/kg (Canis familiaris [5]) of 3% and an inhibition in vivo at 14.58 mg/kg (Canis familiaris [6]) of 97.5%. The ED50 (Canis familiaris [7]) was 5.7 mg/kg, the inhibition in vivo at 1.42 mg/kg (Canis familiaris [8]) was 70% and the inhibition in vivo at 4.58 mg/kg (Canis familiaris [9]) was 91%. It also gave an inhibition in vivo at 1.42 mg/kg (Canis familiaris [10]) of 13.5%, an inhibition in vivo at 0.1 mg/kg (Canis familiaris [11]) of 23.5% and an inhibition in vivo at 0.42 mg/kg (Canis familiaris [12]) of 49.5%.

For `CC(C)(C)NCC(O)COc1nc(-c2ccccc2)ns1` (configuration not stated), the ED50 (Canis familiaris [1]) was 19.3 mg/kg, the inhibition in vivo at 14.58 mg/kg (Canis familiaris [2]) was 100% and the inhibition in vivo at 0.42 mg/kg (Canis familiaris [3]) was 5.3%. For the same molecule, the inhibition in vivo at 4.58 mg/kg (Canis familiaris [4]) was 41.5%, the inhibition in vivo at 0.1 mg/kg (Canis familiaris [5]) was 3.7% and the inhibition in vivo at 14.58 mg/kg (Canis familiaris [6]) was 68%. For the same molecule, the ED50 (Canis familiaris [7]) was 4.9 mg/kg, the inhibition in vivo at 1.42 mg/kg (Canis familiaris [8]) was 9.5% and the inhibition in vivo at 4.58 mg/kg (Canis familiaris [9]) was 23.8%. It also gave an inhibition in vivo at 1.42 mg/kg (Canis familiaris [10]) of 16.5%, an inhibition in vivo at 0.1 mg/kg (Canis familiaris [11]) of 7% and an inhibition in vivo at 0.42 mg/kg (Canis familiaris [12]) of 5.7%.

`CC(C)NCC(O)COc1cccc2ccccc12` (configuration not stated) [PROPRANOLOL] showed an ED50 (Canis familiaris [1]) of 0.09 mg/kg, an inhibition in vivo at 0.13 mg/kg (Canis familiaris [13]) of 62% and an inhibition in vivo at 0.03 mg/kg (Canis familiaris [14]) of 40.5%. It also gave an inhibition in vivo at 0.45 mg/kg (Canis familiaris [15]) of 85.2%, an inhibition in vivo at 4.61 mg/kg (Canis familiaris [16]) of 96.6% and an ED50 (Canis familiaris [7]) of 0.06 mg/kg. It also gave an inhibition in vivo at 0.45 mg/kg (Canis familiaris [17]) of 80.8%, an inhibition in vivo at 1.45 mg/kg (Canis familiaris [18]) of 90.7% and an inhibition in vivo at 4.61 mg/kg (Canis familiaris [19]) of 98.4%. The inhibition in vivo at 0.03 mg/kg (Canis familiaris [20]) was 24.7%, the inhibition in vivo at 1.45 mg/kg (Canis familiaris [21]) was 95.8% and the inhibition in vivo at 0.13 mg/kg (Canis familiaris [22]) was 63.5%.

For `CC(C)NCC(O)COc1cc(Cl)nc(-c2ccccc2)n1` (configuration not stated), the ED50 (Canis familiaris [1]) was greater than 14.6 mg/kg, the inhibition in vivo at 14.58 mg/kg (Canis familiaris [2]) was 19% and the inhibition in vivo at 0.42 mg/kg (Canis familiaris [3]) was 16.5%. For the same molecule, the inhibition in vivo at 4.58 mg/kg (Canis familiaris [4]) was 21%, the inhibition in vivo at 0.1 mg/kg (Canis familiaris [5]) was 5% and the inhibition in vivo at 14.58 mg/kg (Canis familiaris [6]) was 49%. For the same molecule, the ED50 (Canis familiaris [7]) was greater than 14.6 mg/kg, the inhibition in vivo at 1.42 mg/kg (Canis familiaris [8]) was 18% and the inhibition in vivo at 4.58 mg/kg (Canis familiaris [9]) was 16.7%. It also gave an inhibition in vivo at 1.42 mg/kg (Canis familiaris [10]) of 10.3%, an inhibition in vivo at 0.1 mg/kg (Canis familiaris [11]) of 3% and an inhibition in vivo at 0.42 mg/kg (Canis familiaris [12]) of 6%.

Molecule `Cc1nsc(OCC(O)CNC(C)(C)C)n1` (configuration not stated) has an ED50 (Canis familiaris [1]) of 3.6 mg/kg, an inhibition in vivo at 14.58 mg/kg (Canis familiaris [2]) of 85.3% and an inhibition in vivo at 0.42 mg/kg (Canis familiaris [3]) of 12.8%. It also gave an inhibition in vivo at 4.58 mg/kg (Canis familiaris [4]) of 55.5%, an inhibition in vivo at 0.1 mg/kg (Canis familiaris [5]) of 7.7% and an inhibition in vivo at 14.58 mg/kg (Canis familiaris [6]) of 92.3%. The ED50 (Canis familiaris [7]) was 3.5 mg/kg, the inhibition in vivo at 1.42 mg/kg (Canis familiaris [8]) was 39.5% and the inhibition in vivo at 4.58 mg/kg (Canis familiaris [9]) was 59.8%. For the same molecule, the inhibition in vivo at 1.42 mg/kg (Canis familiaris [10]) was 35.5%, the inhibition in vivo at 0.1 mg/kg (Canis familiaris [11]) was 15% and the inhibition in vivo at 0.42 mg/kg (Canis familiaris [12]) was 24.2%.

For `CC(C)(C)NCC(O)COc1nnnn1-c1ccccc1` (configuration not stated), the ED50 (Canis familiaris [1]) was 3 mg/kg, the inhibition in vivo at 14.58 mg/kg (Canis familiaris [2]) was 98.7% and the inhibition in vivo at 0.42 mg/kg (Canis familiaris [3]) was 21.2%. The inhibition in vivo at 4.58 mg/kg (Canis familiaris [4]) was 76.2%, the inhibition in vivo at 0.1 mg/kg (Canis familiaris [5]) was 6.7% and the inhibition in vivo at 14.58 mg/kg (Canis familiaris [6]) was 91%. The ED50 (Canis familiaris [7]) was 1.5 mg/kg, the inhibition in vivo at 1.42 mg/kg (Canis familiaris [8]) was 32.5% and the inhibition in vivo at 4.58 mg/kg (Canis familiaris [9]) was 63%. For the same molecule, the inhibition in vivo at 1.42 mg/kg (Canis familiaris [10]) was 44.8%, the inhibition in vivo at 0.1 mg/kg (Canis familiaris [11]) was 5.7% and the inhibition in vivo at 0.42 mg/kg (Canis familiaris [12]) was 10.5%.
